From US4666908A, “5-Substituted pyrazolo[4,3-d]pyrimidine-7-ones and methods of use” (Warner-Lambert Company, priority 1985, dated 1987)
Where two headings read alike, the source gives them in different places.

Assays:
[1] = biological target: T1, adenosine A1 receptor (Rattus norvegicus, UniProt P25099); experiment: Adenosine Receptor Binding - A1 Receptor Affinity (RBA1), [3H]-N6-cyclohexyladenosine displacement; details: [3H]-CHA 1.0 nM, rat brain membranes, 25° C., one hour; read-out: RBA-1, IC50 for adenosine A1 receptor affinity
T1 construct: Whole brain minus cerebellum and brainstem from male Long Evans rats; from tissue; host or cells: whole brain minus cerebellum and brainstem, male Long Evans rats (membranes)
T1 sequence (P25099 1-326): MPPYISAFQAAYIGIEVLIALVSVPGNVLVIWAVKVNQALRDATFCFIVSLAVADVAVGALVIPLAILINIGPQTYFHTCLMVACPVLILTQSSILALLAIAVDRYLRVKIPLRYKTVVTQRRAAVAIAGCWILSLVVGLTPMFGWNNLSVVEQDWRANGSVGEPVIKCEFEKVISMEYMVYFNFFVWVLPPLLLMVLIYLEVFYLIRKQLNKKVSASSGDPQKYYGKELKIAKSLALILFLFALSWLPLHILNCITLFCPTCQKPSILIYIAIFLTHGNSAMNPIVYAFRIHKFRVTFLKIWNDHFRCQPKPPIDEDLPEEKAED
Procedure: Whole brain minus cerebellum and brainstem from male Long Evans rats (150-200 g) was homogenized in 30 volumes of ice-cold 0.05M Tris-HCl buffer pH 7.7 using a Brinkman Polytron PT-10, (setting number 6 for 20 seconds) and centrifuged for ten minutes at 20,000×g (Sorvall RC-2), 4° C. The supernatant was discarded, and the pellet was resuspended and centrifuged as before. […] The homogenate was again centrifuged, and the final pellet was resuspended in ice-cold 0.05 M Tris-HCl buffer pH 7.7 to a concentration of 20 mg/ml original wet tissue weight and used immediately. […] Incubation volume was 2 ml. […] The filters were rinsed three times with 5 ml of ice cold 0.05 M Tris-HCl buffer pH 7.7. The radio-labeled ligand retained on the filter was measured by liquid scintillation spectrophotometry after shaking the filters for one hour or longer on a mechanical shaker in 10 ml of Beckman Ready-Solv HP scintillation cocktail. […] The Hill coefficient was calculated by linear regression of the line obtained by plotting the log of the bound radioligand vs the log of the [formula] The maximal number of binding sites (Bmax) was calculated from the Scatchard plot.

[2] = test system: Type 3 Phosphodiesterase; experiment: Phosphodiesterase (PDE) Inhibition, Type 3 Phosphodiesterase; type: biochemical, bovine (coronary arteries); details: Type 3 PDE, at 10^-5 M, substrate 3H-cAMP 1.0 μM
Description: (§1) The method of Thompson, et al (Thompson, W. J., Terasaki, W. L., Epstein, P. M., Strada, S. J., Adv. Cyclic Nucleotide Res., 10:69-92, 1979), with minor modifications, was used to isolate phosphodiesterases from vascular smooth muscle. Bovine coronary arteries (right, anterior descending, and left circumflex arteries) from hearts obtained from a local slaughterhouse were used for these studies. Arteries from two hearts were used for each isolation. Hearts were kept on ice and the arteries were dissected within two hours after the animals were sacrificed. After removing all fat and connective tissue, the arteries were everted, cut into cubes with a single edge razor blade and homogenized with a Brinkman Polytron three times at a rheostat setting of 10.0 in four volumes of the PDE isolation buffer (10 mM Tris-HCl/pH 7.5, 2 mM MgCl2, and 1 mM dithiothreitol). The resulting homogenate was sonicated (30 sec/ml homogenate) and then centrifuged at 30,000 xg for 20 minutes. This and all subsequent procedures were performed at 4° C. The resulting supernatant was filtered through four layers of gauze, and applied to a DEAE-cellulose column (30×1.5 cm), prepared as described by Cheung (Cheung, W. Y., Biochim. Biophys. Acta, 191:303-315, 1969), and equilibrated with freshly prepared 70 mM sodium acetate/5 mM 2-mercaptoethanol (pH 6.5). The column was then washed with 2-3 bed volumes of sodium acetate/2-mercaptoethanol, after which the phosphodiesterases were eluted from the column using a continuous 70-1,000 mM sodium acetate gradient (pH 6.5, containing 5 mM 2-mercaptoethanol; total volume 400 ml). The flow rate was approximately equal to 25 ml/hr. Eight ml fractions were collected and assayed for cyclic AMP- and cyclic GMP-phosphodiesterase activity in the presence and absence of 0.1 units of calmodulin and 10 mM CaCl2. Appropriate fractions were pooled and dialyzed against 70 mM sodium acetate/5 mM 2-mercaptoethanol for 20 hours.
(§2) Following complete separation, the combined phosphodiesterase fractions were concentrated to 14% of the original volume using an Amicon ultrafiltration cell fitted with a UM-10 membrane, according to the method of Wells, et al (Wells, J. N., Baird, C. E., Wu, Y. J., Hardman, J. G., Biochim. Biophys. Acta, 384:430-442, 1975). Following concentration, the protein was then diluted to 65% with ethylene glycol monoethyl ether, and stored at -20° C.
(§3) Phosphodiesterase activity was measured as described previously (Weishaar, P. E., Quade, M., Boyd, D., Schenden, J., Mark, S. S., Kaplan, H. R., Drug Devel. Res., 3:517-534, 1983), in a reaction medium containing 40 mM Tris-HCl (pH 8.0), 5 mM MgCl and 4 mM 2-mercaptoethanol. Unless otherwise noted, the concentration of substrate (^3 H-cyclic AMP or ^3 H-cyclic GMP) was 1.0 μM. All agents examined were dissolved in dimethyl sulfoxide (DMSO). Final concentration of the reaction medium was either 2.5% (cardiac and platelet studies) or 1.25% (smooth muscle studies). This concentration of DMSO produced an approximately 10% inhibition of enzyme activity.

[3] = test system: Type 1 Phosphodiesterase; experiment: Phosphodiesterase (PDE) Inhibition, Type 1 Phosphodiesterase; type: biochemical, bovine (coronary arteries); details: Type 1 PDE, at 10^-5 M; for % Inhibition of hydrolysis of 3H-cAMP: substrate 3H-cAMP 1.0 μM; for % Inhibition of hydrolysis of 3H-cGMP: substrate 3H-cGMP 1.0 μM
Description: as §1, §2, §3

[4] = test system: pentobarbital-anesthetized dog; experiment: In Vivo Myocardial Inotropic Activity in Anesthetized Dog (CVAD); set-up: species or system dog (adult mongrel); details: for change in vivo at 0.1 mg/kg / change in vivo at 0.31 mg/kg / change in vivo at 1 mg/kg / change in vivo at 3.1 mg/kg / change in vivo at 0.01 mg/kg / change in vivo at 0.03 mg/kg / change in vivo at 0.3 mg/kg: Canis lupus familiaris, iv; for change in vivo at 3.1 mg/kg: 3.10 mg/kg IV; for change in vivo at 0.3 mg/kg: Test 1, 0.30 mg/kg IV
Procedure: This test procedure is described in the following paragraphs.
This screen consists of determining the effects of increasing intravenous doses of compound on mycardial contractility (dP/dt max of left ventricular blood pressure), heart rate, and aortic blood pressure of the pentobarbital-anesthetized dog.
Adult mongrel dogs of either sex are anesthetized with pentobarbital, 35 mg/kg, IV, and are subsequently maintained under anesthesia with a continuous infusion of pentobarbital, 3.5 mg/kg/hour. The trachea is intubated but the animals are permitted to breathe spontaneously. A cannula is inserted into the femoral vein for administrating test agents. A Millar catheter tip pressure transducer or a fluid filled catheter is inserted into the ascending aorta via the femoral artery for measuring aortic blood pressure. A Millar catheter tip pressure transducer is passed into the left ventricle via the left carotid artery for measuring left ventricular blood pressure. Needle electrodes are placed subcutaneously for recording a lead II electrocardiogram (ECG).
Left ventricular and aortic blood pressures are recorded on a strip chart recorder. Heart rate, using a biotachometer triggered from the R wave of the ECG, and the first derivative of left ventricular blood pressure (dP/dt), obtained with a differentiator amplifier coupled to the corresponding pressure amplifier, are also recorded. A period of at least 30 minutes is utilized to obtain control data prior to administration of test compound.
Ethanol or dimethylacetamide can be used as solvents if adequate dilutions can be made. Appropriate vehicle controls are administered when needed.
Each dose of the test compound is administered in a volume of […] over a period of one minute.

[5] = 0.31 mg/kg IV, read-out: Percent Change Heart Rate
[6] = 0.31 mg/kg IV, read-out: Percent Change Myocardial Contractility
[7] = 1.00 mg/kg IV, read-out: Percent Change Heart Rate
[8] = 1.00 mg/kg IV, read-out: Percent Change Myocardial Contractility
[9] = read-out: Percent Change Heart Rate
[10] = read-out: Percent Change Myocardial Contractility

SMILES: Cc1nn(C)c2c(=O)[nH]c(-c3ccc(Cl)cc3)nc12 [Example 7, 1,3-Dimethyl-5-(4-chlorophenyl)pyrazolo[4,3-d]pyrimidne-7-one]
- IC50 [1]: 0.408 µM
- % Inhibition of hydrolysis of 3H-cAMP [2]: 13%
- % Inhibition of hydrolysis of 3H-cAMP [3]: 7%
- % Inhibition of hydrolysis of 3H-cGMP [3]: 11%

SMILES: Cc1nn(C)c2c(=O)[nH]c(-c3ccc(C(F)(F)F)cc3)nc12 [Example 10]
- IC50 [1]: 0.463 µM
- % Inhibition of hydrolysis of 3H-cAMP [2]: -9%
- % Inhibition of hydrolysis of 3H-cAMP [3]: 12%
- % Inhibition of hydrolysis of 3H-cGMP [3]: 1%

SMILES: COc1ccccc1-c1nc2c(C)nn(C)c2c(=O)[nH]1 [Example 14]
- IC50 [1]: 10 µM
- change in vivo at 0.1 mg/kg ([4]; 0.10 mg/kg IV, read-out: Percent Change Heart Rate): 2%
- change in vivo at 0.1 mg/kg ([4]; 0.10 mg/kg IV, read-out: Percent Change Myocardial Contractility): 2%
- change in vivo at 0.31 mg/kg [4, 5]: 4%
- change in vivo at 0.31 mg/kg [4, 6]: 4%
- change in vivo at 1 mg/kg [4, 7]: 14%
- change in vivo at 1 mg/kg [4, 8]: 10%
- change in vivo at 3.1 mg/kg [4, 9]: 27%
- change in vivo at 3.1 mg/kg [4, 10]: 34%

SMILES: COc1ccc(-c2nc3c(C)nn(C)c3c(=O)[nH]2)c(OC)c1 [Example 17, 1,3-Dimethyl-5-(2,4-dimethoxyphenyl)pyrazolo[4,3-d]-pyrimidine-7-one]
- IC50 [1]: 5.43 µM
- % Inhibition of hydrolysis of 3H-cAMP [2]: 17%
- % Inhibition of hydrolysis of 3H-cAMP [3]: 15%
- % Inhibition of hydrolysis of 3H-cGMP [3]: 26%

SMILES: Cc1nn(C)c2c(=O)[nH]c(-c3ccc(Cl)cc3[N+](=O)[O-])nc12 [Example 18, 1,3-Dimethyl-5-(2-nitro-4-chlorophenyl)pyrazolo-[4,3-d]pyrimidine-7-one]
- IC50 [1]: 8.5 µM
- % Inhibition of hydrolysis of 3H-cAMP [2]: 7%
- % Inhibition of hydrolysis of 3H-cAMP [3]: 7%
- % Inhibition of hydrolysis of 3H-cGMP [3]: 5%

SMILES: Cc1nn(C)c2c(O)nc(-c3ccc(S(=O)(=O)O)cc3)nc12 [Example 20, 1,3-Dimethyl-5-(4-sulfoacid phenyl)pyrazolo[4,3-d]pyrimidine-7-one]
- IC50 [1]: 13 µM

SMILES: Cc1nn(C)c2c(=O)[nH]c(-c3ccc(S(=O)(=O)NCCN(C)C)cc3)nc12 [Example 21]
- IC50 [1]: 0.684 µM

SMILES: CCn1nc(C)c2nc(Cc3ccccc3)[nH]c(=O)c21 [Example 22]
- IC50 [1]: 8.2 µM
- change in vivo at 0.01 mg/kg ([4]; Test 1, 0.01 mg/kg IV, read-out: Percent Change Heart Rate): -1%
- change in vivo at 0.01 mg/kg ([4]; Test 1, 0.01 mg/kg IV, read-out: Percent Change Myocardial Contractility): 11%
- change in vivo at 0.03 mg/kg ([4]; Test 1, 0.03 mg/kg IV, read-out: Percent Change Heart Rate): -1%
- change in vivo at 0.03 mg/kg ([4]; Test 1, 0.03 mg/kg IV, read-out: Percent Change Myocardial Contractility): 12%
- change in vivo at 0.1 mg/kg ([4]; Test 1, 0.10 mg/kg IV, read-out: Percent Change Heart Rate): -4%
- change in vivo at 0.1 mg/kg ([4]; Test 1, 0.10 mg/kg IV, read-out: Percent Change Myocardial Contractility): 17%
- change in vivo at 0.3 mg/kg [4, 9]: -10%
- change in vivo at 0.3 mg/kg [4, 10]: 6%
- change in vivo at 1 mg/kg ([4]; Test 1, 1.00 mg/kg IV, read-out: Percent Change Heart Rate): -12%
- change in vivo at 1 mg/kg ([4]; Test 1, 1.00 mg/kg IV, read-out: Percent Change Myocardial Contractility): 14%
- change in vivo at 0.01 mg/kg ([4]; Test 2, 0.01 mg/kg IV, read-out: Percent Change Heart Rate): -14%
- change in vivo at 0.01 mg/kg ([4]; Test 2, 0.01 mg/kg IV, read-out: Percent Change Myocardial Contractility): -12%
- change in vivo at 0.03 mg/kg ([4]; Test 2, 0.03 mg/kg IV, read-out: Percent Change Heart Rate): -17%
- change in vivo at 0.03 mg/kg ([4]; Test 2, 0.03 mg/kg IV, read-out: Percent Change Myocardial Contractility): -13%
- change in vivo at 0.1 mg/kg ([4]; Test 2, 0.10 mg/kg IV, read-out: Percent Change Heart Rate): -21%
- change in vivo at 0.1 mg/kg ([4]; Test 2, 0.10 mg/kg IV, read-out: Percent Change Myocardial Contractility): -15%
- change in vivo at 0.31 mg/kg ([4]; Test 2, 0.31 mg/kg IV, read-out: Percent Change Heart Rate): -22%
- change in vivo at 0.31 mg/kg ([4]; Test 2, 0.31 mg/kg IV, read-out: Percent Change Myocardial Contractility): -14%
- change in vivo at 1 mg/kg ([4]; Test 2, 1.00 mg/kg IV, read-out: Percent Change Heart Rate): -11%
- change in vivo at 1 mg/kg ([4]; Test 2, 1.00 mg/kg IV, read-out: Percent Change Myocardial Contractility): 2%
- Percent Change Blood Pressure ([4]; Test 1, 0.01 mg/kg IV): 1/0

SMILES: COc1cc(OC)cc(-c2nc3c(C)nn(C)c3c(=O)[nH]2)c1 [Example 23, 1,3-Dimethyl-5-(3,5-dimethoxyphenyl)pyrazolo[4,3-d]-pyrimidine-7-one]
- Percent Change Blood Pressure ([4]; 0.01 mg/kg IV): 2/2
- Percent Change Blood Pressure ([4]; 0.31 mg/kg IV): 3/4
- change in vivo at 0.01 mg/kg ([4]; 0.01 mg/kg IV, read-out: Percent Change Heart Rate): 1%
- change in vivo at 0.01 mg/kg ([4]; 0.01 mg/kg IV, read-out: Percent Change Myocardial Contractility): 5%
- change in vivo at 0.31 mg/kg [4, 5]: 3%
- change in vivo at 0.31 mg/kg [4, 6]: 15%
- change in vivo at 1 mg/kg [4, 7]: 6%
- change in vivo at 1 mg/kg [4, 8]: 22%
